Literature values, collected in US20070178561A1, “Anti-hiv-1 compounds based upon a conserved amino acid sequence shared by gp160 and the human cd4 protein” (priority 2003, published 2007).

Legend:
HIV-1 = conditions: in vitro viral cell growth assays using p24
gp160 = gp160 (Human immunodeficiency virus type 1 group M subtype B, UniProt P04578); conditions: Jiang et al., Nature 365:113, 1993

TNWLWYIKLFIMIVGGLVGLRIVFAKKKC [683-707KKKC]
inhibition of viral growth (p24) (HIV-1): does not inhibit viral growth | binding to gp160 (gp160): bound gp160
